Earlier results, collected in paper PMC3979036, “Autocrine IGF-I/insulin receptor axis compensates for inhibition of AKT in ER-positive breast cancer cells with resistance to estrogen deprivation” (Breast Cancer Research : BCR, 2013).

Biological target: InsR (insulin receptor) (Homo sapiens, UniProt P06213)
Experiment: autophosphorylation of human InsR in transfected CHO-T cells (AstraZeneca unpublished data)
Format: cell-based

Sequence of InsR (insulin receptor) (P06213 28-758): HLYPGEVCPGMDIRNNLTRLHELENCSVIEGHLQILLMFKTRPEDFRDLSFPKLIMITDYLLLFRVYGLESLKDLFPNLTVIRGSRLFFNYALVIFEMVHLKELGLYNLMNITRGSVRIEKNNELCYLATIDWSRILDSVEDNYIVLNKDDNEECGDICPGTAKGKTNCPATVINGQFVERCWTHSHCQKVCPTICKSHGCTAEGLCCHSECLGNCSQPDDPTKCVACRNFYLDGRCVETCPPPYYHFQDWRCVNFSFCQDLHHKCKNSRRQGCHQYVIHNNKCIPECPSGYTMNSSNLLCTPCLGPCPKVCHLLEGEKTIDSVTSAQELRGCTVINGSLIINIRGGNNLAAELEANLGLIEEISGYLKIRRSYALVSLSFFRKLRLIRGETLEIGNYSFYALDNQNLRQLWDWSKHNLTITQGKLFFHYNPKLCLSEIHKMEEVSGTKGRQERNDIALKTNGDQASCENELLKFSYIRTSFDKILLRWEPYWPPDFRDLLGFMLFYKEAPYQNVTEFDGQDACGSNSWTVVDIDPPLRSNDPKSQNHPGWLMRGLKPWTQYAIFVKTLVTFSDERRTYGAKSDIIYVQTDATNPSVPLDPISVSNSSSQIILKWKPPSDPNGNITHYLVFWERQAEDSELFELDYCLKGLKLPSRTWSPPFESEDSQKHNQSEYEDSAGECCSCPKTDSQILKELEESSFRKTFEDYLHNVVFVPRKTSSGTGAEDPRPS
Sequence of InsR (insulin receptor) (P06213 763-1382): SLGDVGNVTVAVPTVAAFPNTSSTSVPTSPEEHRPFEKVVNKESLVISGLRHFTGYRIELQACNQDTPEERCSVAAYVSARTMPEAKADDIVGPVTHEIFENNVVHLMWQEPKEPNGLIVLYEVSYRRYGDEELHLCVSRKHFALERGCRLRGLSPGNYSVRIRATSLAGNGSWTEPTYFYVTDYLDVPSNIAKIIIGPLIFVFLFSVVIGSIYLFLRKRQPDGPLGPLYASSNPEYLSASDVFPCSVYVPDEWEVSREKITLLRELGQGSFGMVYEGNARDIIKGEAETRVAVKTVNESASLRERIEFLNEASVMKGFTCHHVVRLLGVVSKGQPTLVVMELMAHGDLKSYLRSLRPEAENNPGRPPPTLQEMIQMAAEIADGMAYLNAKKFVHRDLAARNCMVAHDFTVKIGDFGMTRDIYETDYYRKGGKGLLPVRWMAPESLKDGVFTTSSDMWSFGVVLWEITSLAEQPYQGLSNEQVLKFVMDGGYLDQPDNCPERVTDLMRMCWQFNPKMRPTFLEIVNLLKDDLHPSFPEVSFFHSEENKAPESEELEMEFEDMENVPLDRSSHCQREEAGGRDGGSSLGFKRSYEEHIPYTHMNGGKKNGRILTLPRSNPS

IC50: 186 nM
Structure (SMILES): Cc1nn(C2CCN(C(=O)[C@@H](C)O)CC2)c(C)c1Nc1ncc(Cl)c(-c2cnn3ccccc23)n1 [AZD9362]
